Test: PH of drug and complex
Assay type: physicochemical

PH: 2.25-2.75
Compound: CC(C)(C(=O)O)c1ccc(C(O)CCCN2CCC(C(O)(c3ccccc3)c3ccccc3)CC2)cc1.Cl (racemic) [Fexofenadine Hydrochloride, (±)-4-[1-hydroxy-4-[4-(hydroxydiphenylmethyl)-1-piperidinyl]-butyl]-α,α-dimethylbenzene acetic acid hydrochloride]
